Values quoted from earlier work in patent publication US20240090499A1, “PRESERVATIVE COMPOSITIONS” (Dermegen Inc., priority 2022, published 2024).
Like-named read-outs stand apart in the source and are kept apart here.

Tested on: fungi (molds)
Settings: ingredient on its own

Compound	anti-fungal activity as known	anti-fungal activity as known (listed as Polylysine)
CCCCCCCC(=O)OCC(O)CO (stereo not drawn) [glyceryl caprylate]	weak preservatives against molds	–
polylysine	only weakly anti-fungal	weak preservative against fungal microorganisms such as molds
